For one series, the target named is T1, CXCR4 (Homo sapiens, UniProt P61073).
T1 construct: expressed in transfected cells; host or cells: COS-7 (African green monkey), transient co-transfection with GαΔ6qi4myr
Nature of the series: Inositol 1 phosphate (IP1) accumulation assay (HTRF) in COS-7 cells transfected with CXCR4. The series is classed as cell-based. To be noted: 5 min preincubation with peptide (1 or 10 μM final), then CXCL12 10^-12 to 10^-5 M; COS-7/CXCR4; IP1 HTRF. The source says:
CXCR4 is a member of the G protein-coupled receptor (GPCR) family[58] and proposed as a target receptor for TFF3 to mediate wound healing.[30],[39] We therefore pharmacologically characterized TFF3(C^57Acm) and TFF3 homodimer at CXCR4. We used a chimeric Gαiq protein to switch the pathway to the Gαq signaling, which leads to the activation of the phospholipase and allows measurement of CXCR4 activation through the production of inositol 1 phosphate (IP1).[61]−[63] We measured IP1 accumulation upon stimulation with TFF3(C^57Acm) and TFF3 homodimer in fibroblast-like COS-7 cells transiently transfected with CXCR4.[58] This is a competitive immunoassay, based on the HTRF technology, where native IP1 produced by cells compete with labeled IP1 (acceptor) for binding to anti-IP1-cryptate (donor). The specific signal (i.e., Förster resonance energy transfer, FRET) is inversely proportional to the concentration of IP1 in the sample. The calculation of the fluorescence ratio eliminates possible medium interferences.[64]
COS-7 cells (fibroblast-like cells from African green monkey) were transiently co-transfected with the CXCR4 C-terminally fused to eYFP in pVitro2 vector and the untagged chimeric G protein GαΔ6qi4myr in pcDNA3.1 plasmid using Metafectene Pro according to manufacturer’s protocol. The cells were cultured in DMEM with higher glucose and supplemented with 10% FCS without any antibiotics at 37 °C and 5% CO2 in 95% humidity. Cisbio IP-One Gq assay kit was used according to previous description with minor modifications to measure activity.[80] Briefly, a standard curve was prepared in HBSS (Hanks’ balanced salt solution) with 20 mM LiCl to determine the linear range of the assay and 10 000 cells/well were cultured overnight in a 384-well flat white plate (Greiner Bio-one GmbH, Frickenhausen, Germany). TFF3 and its homodimer as well as CXCL12 were diluted in HBSS containing 20 mM LiCl. Stimulation was carried out for 1 h in triplicate at 37 °C. Subsequently, 3 μL of IP1-d2 and 3 μL of Ab-cryptate in lysis buffer were added to the wells and incubated on a tumbler for 60 min at 25 °C. Fluorescence was then measured at 620 and 665 nm and the HTRF (homogeneous time-resolved fluorescence) ratio (665/620 nm) was calculated. Data analysis was performed with Prism (version 7, GraphPad, La Jolla). Tested compounds were normalized to CXCL12 wild type, with the highest HTRF ratio set to 0% and the lowest HTRF ratio set to 100% response. […] The final concentration range of 10^–12 to 10^–5 M to CXCL12 and 1 or 10 μM to TFF3(C^57Acm) and TFF3 homodimer was achieved by adding the compounds from a threefold concentrated stock solution.

Series [1] in a line: Stability of disulfide bonds with reduced glutathione (GSH). The series is classed as physicochemical. The following applies: peptide 10 μM, 10 equiv reduced glutathione (100 μM), 50 mM sodium phosphate buffer pH 7.2; timepoints 0, 4, 8, 24 h; analytical C3 RP-HPLC. The source says:
In certain physiological environments, disulfide bonds are prone to scrambling or reductive cleavage, thereby affecting peptide integrity.[67] Thus, we also evaluated the stability of the disulfide bonds of TFF3 in the presence of 10 equivalents of reduced glutathione (GSH) at pH 7 by time-course analytical RP-HPLC. […] While this was expected for the relatively buried disulfide bonds within the trefoil domain (TFF3_10-50), it highlights that also the disulfide bond outside of the trefoil domain is well protected.
Simulated gastric fluid (SGF) was prepared by dissolving 20 mg of NaCl and 8 mg of pepsin in 70 μL of concentrated HCl (32%), and the volume was diluted to 10 mL with Milli-Q water (pH 1.3).[76],[77] […] The samples were analyzed by analytical RP-HPLC (30 μL) and/or LC-MS (20 μL). The amount of peptide remaining was determined by measuring the peak area and expressing it as a % of the peak area at time 0. Peptide half-life (t1/2) was determined from the peptide degradation profiles using an exponential one-phase decay fit in Prism (version 7, GraphPad, La Jolla). […] The stability of the disulfide bonds was assessed through incubation of the peptides (10 μM) with 10 equiv of reduced glutathione (GSH; 100 μM) in sodium phosphate (50 mM) buffer at pH 7.2. […]

In another series the test system is porcine pancreatin. Briefly: simulated intestinal fluid (SIF, containing pancreatic enzymes, pH 6.8). The following applies: 37 °C, up to 24 h.
Another series deals with pepsin. Briefly: simulated gastric fluid (SGF, containing pepsin, pH 1.3). The following applies: porcine, 37 °C, up to 24 h.
A short description of another series: human saliva. The following applies: cited from earlier work.
Series [2] can be described thus: Stability in simulated intestinal fluid (SIF). The series is classed as in vitro ADME. The following applies: pig, simulated intestinal fluid (SIF) with porcine pancreatin, pH 6.8, 15 μL of 1 mM peptide stock in 285 μL SIF, 37 °C, samples 0 min-24 h quenched with 5% aqueous TFA, RP-HPLC/LC-MS peak area as % of time 0, exponential one-phase decay fit, read-out: t1/2 in SIF. Here is the method: (§1) We exposed TFF3(C^57Acm) and TFF3 homodimer to simulated gastric fluid (SGF, containing pepsin, pH 1.3) and simulated intestinal fluid (SIF, containing pancreatic enzymes, pH 6.8), and monitored the mixture over 24 h by analytical RP-HPLC and MS. The N- and C-termini of TFF3 and its homodimer were readily truncated in both SGF and SIF (Figure 4A,B). In SGF, TFF3 was cleaved at Leu^6/Ser^7 followed by cleavage at Glu^54/Ala^55 (t1/2 < 5 min). In SIF, TFF3 was cleaved first at Thr^58/Phe^59 followed by cleavage at Leu^6/Ser^7, Glu^56/Cys^57, and Ala^55/Glu^56 (t1/2 < 5 min). TFF3 homodimer, in both SGF (t1/2 ∼ 40 min) and SIF (t1/2 < 5 min), was first broken down to monomeric TFF3 through simultaneous cleavage at Leu^6 and Glu^54 or Ala^55, eventually leading to the same metabolites as TFF3 (Figure 4B).
(§2) Simulated gastric fluid (SGF) was prepared by dissolving 20 mg of NaCl and 8 mg of pepsin in 70 μL of concentrated HCl (32%), and the volume was diluted to 10 mL with Milli-Q water (pH 1.3).[76],[77] Simulated intestinal fluid (SIF) was prepared by dissolving 68 mg of KH2PO4 in 500 μL of Milli-Q water followed by the addition of 800 μL of 0.2 M NaOH and 100 mg of porcine pancreatin, and the volume was adjusted to 10 mL with Milli-Q water (pH 6.8).[76],[77] Peptide stock solution (1 mM; 15 μL) was added to SGF (285 μL) or SIF (285 μL) and incubated at 37 °C. Samples (30 μL) from SGF and SIF were taken at 0, 5, 15, and 30 min and 1, 2, 4, 8, and 24 h timepoints and subsequently quenched with 30 μL of 0.2 M Na2CO3 (SGF) or 30 μL of 5% aqueous TFA (SIF). The samples were analyzed by analytical RP-HPLC (30 μL) and/or LC-MS (20 μL). The amount of peptide remaining was determined by measuring the peak area and expressing it as a % of the peak area at time 0. Peptide half-life (t1/2) was determined from the peptide degradation profiles using an exponential one-phase decay fit in Prism (version 7, GraphPad, La Jolla). LC-MS analysis was performed in a Q-Star Pulsar mass spectrometer (SCIEX, Ontario, Canada), and the raw data spectra were processed using the peptide reconstruction tool in the BioAnalyst software to identify the mass of the metabolites. The stability of the disulfide bonds was assessed through incubation of the peptides (10 μM) with 10 equiv of reduced glutathione (GSH; 100 μM) in sodium phosphate (50 mM) buffer at pH 7.2. Samples were taken at timepoints 0, 4, 8, and 24 h, quenched by adding 10% TFA, and analyzed by analytical RP-HPLC using an analytical C3 column (Agilent Zorbax SB-C3, 5 μm, 2.1 mm × 250 mm, 300 Å).

The nature of series [3]: Stability in simulated gastric fluid (SGF). The series is classed as in vitro ADME, porcine. The following applies: SGF with pepsin, pH 1.3, 37 °C, 24 h; RP-HPLC and MS. Here is the method:
as §1, §2

Another series concerns trypsin. To be noted: incubated with trypsin; fragments identified. The source says: We then synthesized the trefoil domain (TFF3_10-50, single-chain assembly via Fmoc-SPPS) to investigate its gut stability. We acetylated the N-terminus (Gln^10) of the trefoil domain to prevent the formation of pyroglutamic acid.

Entries after “also recorded” stand apart in the source; their conditions may differ. Bridge positions count the residues as written; N and C are the ends. Ends that are not written are not given here. Bounds are passed on as bounds.

T1 sequence (P61073 whole entry): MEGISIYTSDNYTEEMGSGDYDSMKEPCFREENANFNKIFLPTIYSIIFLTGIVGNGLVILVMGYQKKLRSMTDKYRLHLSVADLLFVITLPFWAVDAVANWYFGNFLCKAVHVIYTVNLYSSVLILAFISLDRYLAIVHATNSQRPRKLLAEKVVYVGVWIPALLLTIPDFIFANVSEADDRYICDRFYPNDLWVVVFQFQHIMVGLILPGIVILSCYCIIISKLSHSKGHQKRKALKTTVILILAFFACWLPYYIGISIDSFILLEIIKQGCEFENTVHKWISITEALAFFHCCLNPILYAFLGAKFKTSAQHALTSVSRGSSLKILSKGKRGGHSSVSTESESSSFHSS

As for “TFF3: 59-residue trefoil factor 3 peptide, three intrachain disulfide bonds, free Cys^57; chemically synthesized by native chemical ligation (EEYVGLSANQCAVPAKDRVDCGYPHVTPKECNNRGCCFDSRIPGVPWCFKPLQEAECTF; disulfide 11-37, 21-36, 31-48)”, the “effect on the EC50 of CXCL12 at CXCR4 (antagonism)” value in the series with CXCR4 is on record as “not affected”. Besides, the “disulfide bond reduction or scrambling in presence of GSH” value in series [1] is reported as “No disulfide bond reduction or scrambling was observed”.
Take “EEYVGLSANQCAVPAKDRVDCGYPHVTPKECNNRGCCFDSRIPGVPWCFKPLQEAECTF”: the cleaved bond result with porcine pancreatin is “Leu6-Ser7, first_seen”; in the series on pepsin it was “Leu6-Ser7, first_seen; also recorded: Glu54-Ala55, first_seen; also recorded: Ala55-Glu56, first_seen”; in “human saliva”, “Thr58-Phe59”. Further, in the series with porcine pancreatin, the fragment found entry is “S^7ANQCAVPAKDRVDCGYPHVTPKECNNRGCCFDSRIPGVPWCFKPLQEAE^56”.
Regarding “Ac-QCAVPAKDRVDCGYPHVTPKECNNRGCCFDSRIPGVPWCFK-NH2 (disulfide 2-28, 12-27, 22-39) [TFF3_10-50]”, in series [2], the half-life at 50 μM is less than 30 min. The “stability in SGF over 24 h (in words)” value in series [3] is “stable”. Further, the “cleavage sites on incubation with trypsin” value in the series on trypsin was “cleavages at Lys^16, Arg^18, and Arg^41”.

The record behind these values is publication PMC8273887 (Journal of Medicinal Chemistry, 2021).
